The structures appear in SMILES notation. Calls of active or inactive are those of the source. No rule for the calls is given here.

For the test, the target named is Voltage-gated inwardly rectifying potassium channel KCNH2 (Homo sapiens) (UniProt Q12809). Nature of the test: relief of dofetilide hERG inhibition by whole-cell recording – manual patch clamp, HEK293-hERG, orthogonal assay, late-stage follow-up (AID 2321). Particulars: dofetilide block rescue, at 10 µM, hits give high values.
Sequence of Voltage-gated inwardly rectifying potassium channel KCNH2 (Homo sapiens) (Q12809 whole entry, looked up): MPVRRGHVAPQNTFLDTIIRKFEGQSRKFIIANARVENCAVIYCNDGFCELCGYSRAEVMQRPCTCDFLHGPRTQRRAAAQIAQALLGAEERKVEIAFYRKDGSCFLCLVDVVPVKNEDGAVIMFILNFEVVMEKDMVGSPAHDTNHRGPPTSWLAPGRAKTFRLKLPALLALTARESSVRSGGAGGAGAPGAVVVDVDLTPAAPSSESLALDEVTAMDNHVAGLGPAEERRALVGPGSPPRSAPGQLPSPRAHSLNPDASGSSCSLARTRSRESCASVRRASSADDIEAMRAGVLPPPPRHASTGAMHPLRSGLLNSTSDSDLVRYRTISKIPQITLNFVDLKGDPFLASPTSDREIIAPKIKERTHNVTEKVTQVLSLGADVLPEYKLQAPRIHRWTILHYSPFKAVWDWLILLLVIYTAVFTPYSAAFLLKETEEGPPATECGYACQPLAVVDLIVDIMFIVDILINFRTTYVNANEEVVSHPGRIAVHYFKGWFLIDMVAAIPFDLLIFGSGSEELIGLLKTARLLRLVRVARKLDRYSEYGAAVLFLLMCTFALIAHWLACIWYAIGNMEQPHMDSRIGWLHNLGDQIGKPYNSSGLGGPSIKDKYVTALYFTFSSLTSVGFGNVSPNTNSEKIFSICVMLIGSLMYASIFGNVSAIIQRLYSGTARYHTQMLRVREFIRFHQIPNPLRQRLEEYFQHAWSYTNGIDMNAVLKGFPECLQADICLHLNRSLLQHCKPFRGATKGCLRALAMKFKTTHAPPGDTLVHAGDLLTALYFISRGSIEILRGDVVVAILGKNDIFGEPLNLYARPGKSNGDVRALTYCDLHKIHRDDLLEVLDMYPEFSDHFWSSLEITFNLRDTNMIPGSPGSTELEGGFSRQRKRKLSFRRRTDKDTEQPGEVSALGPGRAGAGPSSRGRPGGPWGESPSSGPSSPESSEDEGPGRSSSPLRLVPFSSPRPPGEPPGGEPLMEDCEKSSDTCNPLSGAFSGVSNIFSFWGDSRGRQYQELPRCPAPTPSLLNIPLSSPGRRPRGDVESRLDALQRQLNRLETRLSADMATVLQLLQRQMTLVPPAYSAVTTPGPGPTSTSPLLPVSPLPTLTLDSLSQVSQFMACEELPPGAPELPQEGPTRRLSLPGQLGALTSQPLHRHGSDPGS
With `O=C(O)c1cc(Cl)ccc1Nc1nc2cc(Cl)ccc2o1`, the percent unblocked is 0% (inactive).

With `CN(c1ccccc1)c1nc2cc(Cl)ccc2o1`, the percent unblocked was 0% (inactive). For the compound `O=C(O)c1ccccc1Nc1nc2cc(Cl)ccc2o1`, the percent unblocked is 0% (inactive).

For `COc1ccc(OC)c(NC(=S)NC(=O)c2ccc(Br)o2)c1`, the percent unblocked is 0% (inactive). As for `O=C(COc1ccc2ccccc2c1Br)Nc1cccnc1`, the figure is 0% (inactive). With `O=C(O)c1ccc(Nc2nc3cc(Cl)ccc3o2)cc1`, the percent unblocked is 0% (inactive). For the compound `Clc1ccc2oc(Nc3ccccn3)nc2c1`, the percent unblocked was 0% (inactive).

As to `COc1ccccc1NC(=S)NC(=O)c1ccc(-c2ccc(Cl)cc2)o1`, the percent unblocked is 0% (inactive). Consider `Cc1ccc(C(=O)Nc2nc3ccccc3c(=O)s2)cc1`, for which the percent unblocked is 0% (inactive).
